Source: BindingDB's records for doi:10.1021/cb500956g (University of North Carolina At Chapel Hill, 2015)

How the values were obtained:
[1] = target: T1, Lethal(3)malignant brain tumor-like protein 3 (Homo sapiens, UniProt Q96JM7); experiment: AlphaScreen Assay; settings: pH 8
T1 sequence (Q96JM7 whole entry): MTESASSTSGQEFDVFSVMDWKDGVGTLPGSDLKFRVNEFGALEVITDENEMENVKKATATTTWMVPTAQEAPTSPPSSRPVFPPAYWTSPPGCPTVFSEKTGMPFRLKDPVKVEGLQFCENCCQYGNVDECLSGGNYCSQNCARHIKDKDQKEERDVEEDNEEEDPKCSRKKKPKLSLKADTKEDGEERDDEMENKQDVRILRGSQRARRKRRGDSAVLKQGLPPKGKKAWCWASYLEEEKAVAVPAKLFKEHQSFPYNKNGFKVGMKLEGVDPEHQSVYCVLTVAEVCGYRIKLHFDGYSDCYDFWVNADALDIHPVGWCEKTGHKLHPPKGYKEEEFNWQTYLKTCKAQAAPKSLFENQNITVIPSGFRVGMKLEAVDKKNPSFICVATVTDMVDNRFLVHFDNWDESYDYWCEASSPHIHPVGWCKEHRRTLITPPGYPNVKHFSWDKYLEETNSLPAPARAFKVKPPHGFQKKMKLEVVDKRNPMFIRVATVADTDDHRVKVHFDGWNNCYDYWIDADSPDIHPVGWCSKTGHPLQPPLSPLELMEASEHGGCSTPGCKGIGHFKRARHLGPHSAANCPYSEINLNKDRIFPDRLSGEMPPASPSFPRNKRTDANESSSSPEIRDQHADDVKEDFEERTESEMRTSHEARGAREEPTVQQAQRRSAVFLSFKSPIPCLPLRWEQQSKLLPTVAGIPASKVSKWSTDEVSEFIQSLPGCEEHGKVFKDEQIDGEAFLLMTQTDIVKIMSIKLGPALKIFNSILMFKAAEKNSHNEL
Protocol: (§1) In brief, compound plates (1 μL at 10 mM highest concentration; 3-fold, 10-point dilutions in DMSO) were diluted in 1X assay buffer (20 mM TRIS pH 8.0, 25 mM NaCl, 2 mM DTT and 0.05% Tween-20) to 1 mM using a Multimek robotic pipettor (Nanoscreen), and 1 μL was spotted into the wells of 384-well low-volume Proxiplates (PerkinElmer). To these plates was added 9 μL of protein−peptide mix in a 1X assay buffer by Multidrop (Thermo) to bring the final compound concentration to 100 μM, and this was incubated for 30 min at RT. Next, 2 μL of a 1:1 mixture of streptavidin-conjugate donor and nickel-chelate acceptor beads (45μg/mL in 1X assay buffer) were added, and the plates were allowed to incubate for an additional 30 min in the dark at RT. After incubation, the plates were read on an EnVision multilabel reader equipped with an HTS AlphaScreen laser (PerkinElmer).

PHD finger protein 19 = PHD finger protein 19 (Homo sapiens, UniProt Q5T6S3); experiment: AlphaScreen Assay; settings: pH 8
Protocol: as §1

## CC(C)(C)NCCCNC(=O)c1ccccc1Br [2-Bromo-N-(3-(tert-butylamino)propyl)benzamide (16)]
[1]
  IC50: > 100 µM
PHD finger protein 19
  IC50: > 100 µM

## CC(C)(C)NCCCCNC(=O)c1cccc(Br)c1 [3-Bromo-N-(4-(tert-butylamino)butyl)benzamide (11)]
[1]
  IC50: > 100 µM
PHD finger protein 19
  IC50: > 100 µM

## CC(C)(C)NCCCCCNC(=O)c1cccc(Br)c1 [3-Bromo-N-(5-(tert-butylamino)pentyl)benzamide (12)]
[1]
  IC50: > 100 µM
PHD finger protein 19
  IC50: > 100 µM

## CC(C)(C)NCCCNC(=O)c1ccc(Br)cc1 [4-Bromo-N-(3-(tert-butylamino)propyl)benzamide (15)]
[1]
  IC50: > 100 µM
PHD finger protein 19
  IC50: > 100 µM

## CC(C)(C)NCCCNC(=O)c1cc(Br)ccn1 [4-Bromo-N-(3-(tert-butylamino)propyl)picolinamide (24)]
[1]
  IC50: > 100 µM
PHD finger protein 19
  IC50: > 100 µM

## CC(C)(C)N1CCN(C(=O)c2cccc(Br)c2)CC1 [(3-Bromophenyl)(4-(tert-butyl)piperazin-1-yl)methanone (10)]
[1]
  IC50: > 100 µM
PHD finger protein 19
  IC50: > 100 µM

## CC(C)(C)NCCCNC(=O)c1cc(C(F)(F)F)ccn1 [N-(3-(Tert-butylamino)propyl)-4-(trifluoromethyl)picolinamide (25)]
[1]
  IC50: > 100 µM
PHD finger protein 19
  IC50: > 100 µM
